In US20190133979A1, “METHOD FOR ENHANCING DELIVERY OF THERAPEUTIC DRUGS TO TREATMENT SITES” (Chang Gung University, priority 2013, published 2019):
Entries after “also recorded” stand apart in the source; their conditions may differ.

Columns and labels:
LN229 cells [1] = assay: Determination of cell-associated MNPs (MNPcell) in LN229 cells; assay type: cell-based, human; details: for capability of enhancing cellular uptake of MNPs, in words / concentration as low as which cellular uptake of MNPs is significantly increased: FIG. 4; for capability of enhancing cellular uptake of MNPs, in words: LN-299 [sic] cells; for effect on uptake of MNPs, in words: MNPs 100 μg/mL, 10 or 30 μM, 24 hrs, vs vehicle; for increase of MNPcell / enhancement of MNPcell at 4° C.: LN229 cells; for enhancement of MNPcell at 4° C.: 30 μM, 2 h; for effect on cell-associated MNPs (MNPcell), in words: LN-229 cells, with or without magnetic field; for increase of cellular uptake of MNP: vs without compound
Method: (§1) LN229 cells, human glioma cells, were cultured in DMEM medium; whereas HeLa cells, human cervical cancer cells, were cultured in MEM medium. Both media were supplemented with 10% fetal bovine serum (FBS) and 1% penicillin/streptomycin/amphotericin B solution. The cells were maintained in a 37° C. incubator supplied with 5% CO2 and sub-cultured every 3 to 4 days.
LN229 or HeLa cells were seeded and grown in 24-well plates. […] In some experiments, cells were equilibrated at 4° C. for 20 min, followed by an additional 2-h incubation with MNPs at 4° C. in the absence and presence of the magnet. A home-made magnetic plate with 24 pieces of cylindrical NdFeB magnet were used to provide a magnetic field of 3.4 kG at the center of each well. For the group without the magnet during incubation with MNPs, the magnetic plate was placed underneath the culture plates for 5 min after MNP administration to facilitate MNP sedimentation. The cells were then washed twice with phosphate-buffered saline (PBS) and trypsinized prior to colorimetric quantification. The cell pellet containing cell-associated MNPs (MNPcell) was treated with 10% hydrochloric acid at 55° C. for 4 h, followed by adding ammonium persulfate (1 mg/mL) and potassium thiocyanate solution (1 M). The amount of cell-associated iron was determined with VICTOR3 Multilabel Plate Reader (PerkinElmer, Waltham, Mass.) at OD490. A calibration curve was prepared under identical conditions.

HeLa cells = assay: Determination of cell-associated MNPs (MNPcell) in HeLa cells; assay type: cell-based, human; details: for increase of MNPcell: 10 μM; for effect on cell-associated MNPs (MNPcell), in words: with or without magnetic field
Method: as §1
(§2) LN229 or HeLa cells were seeded and grown in 24-well plates. After attaining 80-90% confluence, the cells were exposed to MNPs (100 μg/mL) and phenolic compounds (10 or 30 μM) in the presence or absence of NdFeB magnet underneath the plate for 24 h. In some experiments, cells were equilibrated at 4° C. for 20 min, followed by an additional 2-h incubation with MNPs at 4° C. in the absence and presence of the magnet. A home-made magnetic plate with 24 pieces of cylindrical NdFeB magnet were used to provide a magnetic field of 3.4 kG at the center of each well. For the group without the magnet during incubation with MNPs, the magnetic plate was placed underneath the culture plates for 5 min after MNP administration to facilitate MNP sedimentation. The cells were then washed twice with phosphate-buffered saline (PBS) and trypsinized prior to colorimetric quantification. The cell pellet containing cell-associated MNPs (MNPcell) was treated with 10% hydrochloric acid at 55° C. for 4 h, followed by adding ammonium persulfate (1 mg/mL) and potassium thiocyanate solution (1 M). The amount of cell-associated iron was determined with VICTOR3 Multilabel Plate Reader (PerkinElmer, Waltham, Mass.) at OD490. A calibration curve was prepared under identical conditions.

LN229 cells [2] = assay: Confocal microscopy of fluorescent CMX-MNP internalization; assay type: cell-based, human
Method: LN229 cells were seeded onto poly-lysine coated coverslips 18 h before experiments. The cells were incubated with green fluorescent MNPs with carboxylmethyl-dextran coating (nano-screenMAG-CMX; 100 μg/mL) and methyl gallate (30 μM) at 37° C. for 2 h in the presence of NdFeB magnet underneath the culture plate. Cells were then washed twice with PBS and then incubated with Lysotracker® (0.125 μM) for 30 min for staining of lysosomes. The cells were than washed with PBS and fixed with 4% paraformaldehyde for 20 min at room temperature. The cells were counterstained with DAPI and imaged with a Zeiss LSM 510 Meta laser confocal microscope system equipped with a 100×/1.4 oil immersion objective lens. Image processing and analysis of fluorescent MNPs colocalized with cells was performed using Fiji Image J.

tumor cells = assay: Timing of EGCG and MNP addition, MNPcell in 5 study groups; assay type: cell-based
Method: as §2
In this example, the timing for adding the present polyphenolic compound with MNPs to the tumor cells was investigated. To this purpose, 5 study groups were designed and respectively treated with the designated compounds, then the MNPcell in each group was determined. The concentrations of MNPs and epigallocatechin gallate (EGCG) or compound 12 used in this example were respectively 100 μg/mL and 10 μM. In Group I (the control group), cells were treated with MNPs (2 hrs). In Group 2, cells were first treated with EGCG (2 hrs), which was removed, and then with MNPs (2 hrs). In Group 3, cells were simultaneously treated with EGCG and MNPs for 2 hours. In Group 4, cells were first treated with EGCG (2 hrs), then with the combination of MNP and EGCG (2 hrs). […]

[3] = 10 μM, magnetic field-free environment

`O=c1c(O)c(-c2ccc(O)c(O)c2)oc2cc(O)cc(O)c12` [quercetin] was tested, and the “cellular uptake of MNP higher than without compound” value (LN229 cells [1]; 20 μM, absence of magnetic field) was 5 times, the “capability of enhancing cellular uptake of MNPs, in words” value (from here on “capability”) (LN229 cells [1]) was “possessed the capability of enhancing cellular uptake of MNPs; also recorded: enhanced cellular uptake of MNPs” and the “effect on uptake of MNP in the presence of magnet, in words” value (LN229 cells [1]; presence of magnet) was “more significant increase in the uptake of MNP via a concentration-dependent manner”.
In the case of `O=C(O)c1cc(O)cc(O)c1` [Compound 7, α-resorcylic acid], the “effect on uptake of MNPs, in words” value (LN229 cells [1]; absence of magnet) was “none of them was effective” and the “effect on uptake of MNPs, in words” value (LN229 cells [1]; presence of magnet) was “none of them was effective”.
For `COC(=O)c1cc(O)c(O)c(O)c1` [Compound 2, Methyl Gallate], the “increase of MNPcell” value (HeLa cells; absence of the magnet) was 0.6 fold, the “increase of MNPcell” value (HeLa cells; presence of the magnet) was 1.0 fold and the “effect on cell-associated MNPs (MNPcell), in words” value (“effect on cell-associated MNPs” for short) (HeLa cells) was “concentration-dependent increase”. The “internalization of MNPs, in words” value (LN229 cells [2]; 30 μM, 2 h, CMX-MNP 100 μg/mL, compared to vehicle control) was “greatly increased internalization of MNPs”, the “overlap coefficient, Mander's coefficient, of MNP relative to lysosomes” value (LN229 cells [2]; in the presence of methyl gallate (n=8), vehicle 0.51±0.08) was 0.65±0.03 and the “increase of MNPcell” value (LN229 cells [1]; 10 μM, absence of the magnet) was 1.4 fold. The “increase of MNPcell” value (LN229 cells [1]; 10 μM, magnet underneath cells) was 2.1 fold, the “increase of MNPcell” value (LN229 cells [1]; 50 μM, absence of the magnet) was 4.5 fold and the “increase of MNPcell” value (LN229 cells [1]; 50 μM, presence of the magnet) was 2.9 fold. For the same compound, the “enhancement of MNPcell at 4° C.” value (LN229 cells [1]; with the magnet) was 0.4 fold, the “enhancement of MNPcell at 4° C.” value (LN229 cells [1]; without magnet) was 1.4 fold and the “effect on cell-associated MNPs” value (LN229 cells [1]; listed as Methyl gallate) was “enhanced MNPcell in a concentration-dependent manner”. The “effect on cell-associated MNPs” value (LN229 cells [1]; listed as methyl gallate) was “concentration-dependent increase”, the “effect on uptake of MNPs, in words” value (LN229 cells [1]; absence of magnet) was “effective in enhancing the uptake of MNPs” and the “effect on uptake of MNPs, in words” value (LN229 cells [1]; presence of magnet) was “effective in enhancing the uptake of MNPs”.
In the case of `O=C(O[C@@H]1Cc2c(O)cc(O)cc2O[C@@H]1c1ccc(O)c(O)c1)c1cc(O)c(O)c(O)c1` [Compound 13, Epicatechin gallate], the “increase of cellular uptake of MNP” value (LN229 cells [1]; 10 μM, external magnetic field) was 5-6 times, the “increase of cellular uptake of MNP” value (LN229 cells [1]; [3]) was 12 times and the “concentration as low as which cellular uptake of MNPs is significantly increased” value (LN229 cells [1]) was 3 µM. For the same compound, the “capability” value (LN229 cells [1]; listed as ECG) was “possessed the capability of enhancing cellular uptake of MNPs; also recorded: enhanced cellular uptake of MNPs”.
For `O=C(O[C@@H]1Cc2c(O)cc(O)cc2O[C@@H]1c1cc(O)c(O)c(O)c1)c1cc(O)c(O)c(O)c1` [Compound 12, Epigallocatechin gallate], the “uptake of MNPs, in words” value (tumor cells; Group 2: EGCG 10 μM 2 hrs, removed, then MNPs 100 μg/mL 2 hrs) was “no enhanced uptake of MNPs was found”, the “uptake of MNPs, in words” value (tumor cells; Group 3: EGCG 10 μM and MNPs 100 μg/mL simultaneously 2 hours, presence and absence of magnet) was “enhanced uptake of MNPs was achieved” and the “uptake of MNPs, in words” value (tumor cells; Groups 4 and 5: EGCG pre-treatment 2 or 4 hrs, then MNP and EGCG 2 hrs, vs Group 3) was “did not result in further increase in the cellular uptake of MNPs”. For the same compound, the “increase of cellular uptake of MNP” value (LN229 cells [1]; 10 μM, external magnetic field) was 16 times, the “increase of cellular uptake of MNP” value (LN229 cells [1]; [3]) was 5.7 times and the “concentration as low as which cellular uptake of MNPs is significantly increased” value (LN229 cells [1]) was 3 µM. For the same compound, the “capability” value (LN229 cells [1]; listed as EGCG) was “possessed the capability of enhancing cellular uptake of MNPs; also recorded: enhanced cellular uptake of MNPs”.
In the case of `O=C(O)c1ccc(O)c(O)c1` [Compound 5, protocatechuic acid], the “effect on uptake of MNPs, in words” value (LN229 cells [1]; presence of magnet) was “enhanced the uptake of MNPs in the presence of magnet”.
For `CCCOC(=O)c1cc(O)c(O)c(O)c1` [Compound 3, Propyl Gallate], the “effect on uptake of MNPs, in words” value (LN229 cells [1]; absence of magnet) was “effective in enhancing the uptake of MNPs” and the “effect on uptake of MNPs, in words” value (LN229 cells [1]; presence of magnet) was “effective in enhancing the uptake of MNPs”.
In the case of `O=C(O)c1ccc(O)cc1` [Compound 6, p-hydroxybenzoic acid], the “effect on uptake of MNPs, in words” value (LN229 cells [1]; absence of magnet) was “none of them was effective” and the “effect on uptake of MNPs, in words” value (LN229 cells [1]; presence of magnet) was “none of them was effective”.
`O.O=C(O)c1cc(O)c(O)c(O)c1` [Compound 1, Gallic acid monohydrate] was tested, and the “increase of MNPcell” value (HeLa cells; absence of the magnet) was 1.8 fold, the “increase of MNPcell” value (HeLa cells; presence of the magnet) was 1.9 fold and the “effect on cell-associated MNPs” value (HeLa cells) was “concentration-dependent increase”. The “increase of MNPcell” value (LN229 cells [1]; 50 μM, absence of the magnet) was 5.4 fold, the “increase of MNPcell” value (LN229 cells [1]; 50 μM, presence of the magnet) was 3.9 fold and the “enhancement of MNPcell at 4° C.” value (LN229 cells [1]; with the magnet) was 0.6 fold. For the same compound, the “enhancement of MNPcell at 4° C.” value (LN229 cells [1]; without magnet) was 1.9 fold, the “effect on cell-associated MNPs” value (LN229 cells [1]) was “concentration-dependent increase” and the “effect on uptake of MNPs, in words” value (LN229 cells [1]; absence of magnet) was “effective in enhancing the uptake of MNPs”. For the same compound, the “effect on uptake of MNPs, in words” value (LN229 cells [1]; presence of magnet) was “effective in enhancing the uptake of MNPs” and the “concentration as low as which a significant increase in LN229 cell-associated MNPs is induced” value (LN229 cells [1]; compared to vehicle, with and without magnet) was 6 µM.
`COc1cc(/C=C/C(=O)O)ccc1O` [Compound 11, ferulic acid] was tested, and the “effect on uptake of MNPs, in words” value (LN229 cells [1]; absence of magnet) was “none of them was effective” and the “effect on uptake of MNPs, in words” value (LN229 cells [1]; presence of magnet) was “none of them was effective”.
In the case of `O=C(O)/C=C/c1ccc(O)c(O)c1` [Compound 9, caffeic acid], the “effect on uptake of MNPs, in words” value (LN229 cells [1]; presence of magnet) was “enhanced the uptake of MNPs in the presence of magnet”.
With `NC(=O)c1cc(O)c(O)c(O)c1` [Compound 4, 3,4,5-trihydroxybenzamide] the “effect on uptake of MNPs, in words” value (LN229 cells [1]; absence of magnet) was “effective in enhancing the uptake of MNPs” and the “effect on uptake of MNPs, in words” value (LN229 cells [1]; presence of magnet) was “effective in enhancing the uptake of MNPs”.
For `O=C(O)CCc1ccc(O)c(O)c1` [Compound 10, Dihydrocaffeic Acid], the “effect on uptake of MNPs, in words” value (LN229 cells [1]; presence of magnet) was “enhanced the uptake of MNPs in the presence of magnet”.
